# How the values were obtained:
# coa6Δ cells = assay: Oxygen consumption rate measurement; type: cell-based, Saccharomyces cerevisiae; conditions: 20 nM ES, YP galactose medium
# Method: Oxygen Consumption Measurement. For measurements of respiration rates, cells were grown to late log phase in YPGal medium and then washed, counted, and resuspended in fresh YPGal medium at 10^8 cells/ml. The rate of oxygen consumption was then measured at 30° C. using the Oxytherm (Hansatech, Norfolk, UK). Cyanide-sensitive respiration was calculated after the addition of 1 mM KCN, and the cyanide-insensitive respiration was subtracted from the total respiration.
# BY4741 WT cells = assay: Respiratory growth of wild type yeast with copper chelator BCS; type: cell-based, Saccharomyces cerevisiae; conditions: 10 nM ES co-treatment with 20 μM BCS
# Method: The cell density was measured spectrophotoretrically at the indicated time points at 600 nm. The data are representative of two independent experiments.
# ctr1Δ cells = assay: Respiratory growth rescue of ctr1Δ yeast; type: cell-based, Saccharomyces cerevisiae; conditions: non-fermentable media, 37° C.
# Method: Yeast Strains and Culture Conditions. The authenticity of yeast strains was confirmed by PCR as well as by replica plating on dropout plates. Yeast cells were cultured in standard YP growth media including YPD (1% yeast extract, 2% peptone and 2% glucose), YPGal (2% galactose), YPGE (3% glycerol+1% ethanol), or synthetic media (SC glucose). For qualitative growth measurement, 10-fold serial dilutions of overnight cultures were spotted on YPD or YPGE plates and incubated at 30° C. and 37° C. for the indicated period. Growth in liquid media was measured spectrophotometrically at 600 nm.
# ES Rescues Many Different Yeast Mutants with Impaired Copper Metabolism. To test the specificity of ES mediated rescue, a number of yeast mutants of genes required for maintaining cellular and mitochondrial copper homeostasis were shortlisted. Genes were prioritized based on their evolutionary conservation, presence of pathogenic mutations in humans, and/or the existence of a related mouse phenotype (Table 3, shown below). […] Most of the yeast mutants were rescued with ES supplementation, albeit to different degrees, reflecting their distinct roles in cellular and mitochondrial copper homeostasis.
# [1] = test system: Ctr1^−/− H9c2 cardiomyocytes; assay: Intracellular copper levels in Ctr1 knockout H9c2 cardiomyocytes (ICP-MS); type: cell-based, rat; conditions: 5 nM ES
# Method: FIGS. 4A and 4B illustrates the effects of ES supplementation in increasing copper levels (A) and cytochrome c oxidase subunit, COX1, and superoxide dismutase, SOD1 levels (B) in Ctrl1^−/− H9c2 rat cardiomyocytes. ATP5A is a subunit of mitochondrial ATP synthase and was used as a loading control for the Western blotting experiment.
# Mammalian Cell Culture. The human control MCH46 and SCO2 patient fibroblasts as well as the rat H9c2 control and Ctr1^−/− cardiomyocytes were cultured in high glucose Dulbecco's modified Eagle's medium (DMEM) supplemented with 10% fetal bovine serum (Sigma) and 1 mM sodium pyruvate (Life Technologies). […] Whole cell protein was extracted in lysis buffer (BP-115, Boston BioProducts) supplemented with protease inhibitor cocktail (Roche Diagnostics) and the protein concentrations were determined by BCA assay (Thermo Scientific). […]
# Cellular and Mitochondrial Copper Measurements. Cellular and mitochondrial copper levels were measured using the Perkin Elmer DRC II Inductively Coupled Plasma-Mass Spectrometer (ICP-MS). […] Samples were diluted in ultrapure metal-free water (TraceSELECT, Sigma) and analyzed by ICP-MS. […] Copper concentrations in mammalian cells were also measured by ICP-MS. […]
# [2] = test system: Ctrl^−/− mouse embryonic fibroblasts (MEFs); assay: COX1 levels in Ctr1 knockout mouse embryonic fibroblasts; type: cell-based; conditions: increasing ES doses
# Method: Mammalian Cell Culture. The human control MCH46 and SCO2 patient fibroblasts as well as the rat H9c2 control and Ctr1^−/− cardiomyocytes were cultured in high glucose Dulbecco's modified Eagle's medium (DMEM) supplemented with 10% fetal bovine serum (Sigma) and 1 mM sodium pyruvate (Life Technologies). The mouse embryonic fibroblasts were cultured in DMEM 10% FBS, 1 mM sodium pyruvate, 1× minimum essential medium non-essential amino acids (MEM NEAA; Life Technologies 11140), 50 μg/mL uridine, and 1× Pen Strep Glutamine (Life Technologies 10378). All cell lines were cultured under 5% CO2 at 37° C. and were treated with indicated concentrations of ES for 3-6 days before harvesting. Whole cell protein was extracted in lysis buffer (BP-115, Boston BioProducts) supplemented with protease inhibitor cocktail (Roche Diagnostics) and the protein concentrations were determined by BCA assay (Thermo Scientific).
# Immunoblotting and In-gel Activities. Sodium dodecyl sulfate polyacrylamide gel electrophoresis (SDS-PAGE) and Blue Native PAGE (BN-PAGE) were performed to separate denatured and native protein complexes, respectively. For SDS-PAGE, mitochondrial lysate ([…]) was separated on NuPAGE 4-12% Bis-Tris gels (Life Technologies, Carlsbad, CA). For BN-PAGE, yeast mitochondria were solubilized in buffer containing 1% digitonin (Life Technologies) by incubating for 15 min at 4° C. […]
smiles,measurement,setting,value
"CN(NC(=O)CC(=O)NN(C)C(=S)c1ccccc1)C(=S)c1ccccc1 [ES, elesclomol]",oxygen consumption rate,coa6Δ cells,restored the oxygen consumption rate of coa6Δ cells to that of wild type cells
same,rescue of BCS-reduced respiratory growth,BY4741 WT cells,rescued
same,rescue of respiratory growth,ctr1Δ cells,higher concentration of ES is required to rescue
same,intracellular copper levels,[1],restored
same,COX1 levels,[2],dose dependent rescue

# — patent publication US20240285555A1, “COMPOSITIONS FOR THE TREATMENT OF COPPER DEFICIENCY AND METHODS OF USE” (priority 2018, published 2024)
